Our source for the EC50 values is US12558357B2, “Tetrahydroquinazoline derivatives as selective cytotoxic agents” (Merck Sharp & Dohme LLC, priority 2020, dated 2026).

One assay concerns PBMCs infected with VSV-G pseudotyped HIV virus (VSV-G/pNLG1-P2A-ΔEnv). Kind of assay: cells. In kind it is cell-based, human. The settings on record: Homo sapiens, PBMC, read-out: EC50 (HIV-TACK cell kill activity).
The EC50 is the concentration needed to bring the measured effect to its halfway point. Take `Cc1cc2c(cc1Cn1cnccc1=O)NC(=O)N[C@]2(C#CC1CC1)C(F)(F)F` [Example 80, (S)-4-(cyclopropylethynyl)-6-methyl-7-((6-oxopyrimidin-1(6H)-yl)methyl)-4-(trifluoromethyl)-3,4-dihydroquinazolin-2(1H)-one]: the EC50 is 57 nM. For the molecule `COCc1cc(=O)n(Cc2cc3c(cc2Cl)[C@@](C#CC2CC2)(C(C)(F)F)NC(=O)N3)cn1` [Example 19, (S)-6-chloro-4-(cyclopropylethynyl)-4-(1,1-difluoroethyl)-7-((4-(methoxymethyl)-6-oxopyrimidin-1(6H)-yl)methyl)-3,4-dihydroquinazolin-2(1H)-one], the EC50 turned out to be 14 nM. Consider `Nc1cc(=O)n(Cc2cc3c(cc2Cl)[C@@](C#CC2CC2)(C(F)(F)F)NC(=O)N3)cn1` [Example 13, (S)-7-((4-amino-6-oxopyrimidin-1(6H)-yl)methyl)-6-chloro-4-(cyclopropylethynyl)-4-(trifluoromethyl)-3,4-dihydroquinazolin-2(1H)-one], for which the EC50 was found to be 46 nM. As for `Nc1c(Cl)ncn(Cc2ccc3c(c2)NC(=O)N[C@]3(C#CC2CC2)C(F)(F)F)c1=O` [Example 40, (S)-7-((5-amino-4-chloro-6-oxopyrimidin-1(6H)-yl)methyl)-4-(cyclopropylethynyl)-4-(trifluoromethyl)-3,4-dihydroquinazolin-2(1H)-one], the EC50 amounted to 65 nM. For `O=C1Nc2cc(Cn3cnc(C(F)F)cc3=O)c(Cl)cc2[C@@](C#CC2CC2)(C(F)(F)F)N1` [Example 62, (S)-6-chloro-4-(cyclopropylethynyl)-7-((4-(difluoromethyl)-6-oxopyrimidin-1(6H)-yl)methyl)-4-(trifluoromethyl)-3,4-dihydroquinazolin-2(1H)-one], the EC50 was found to be 41 nM.

Consider `CN1C(=O)Nc2cc(Cn3ccnc(N)c3=O)c(Cl)cc2C1(C#CC1CC1)C(F)(F)F` (single isomer, unassigned) [Example 76], for which the EC50 amounted to 42 nM. As for `Nc1c(C(F)(F)F)ncn(Cc2ccc3c(c2)NC(=O)N[C@]3(C#CC2CC2)C(F)(F)F)c1=O` [Example 33, (S)-7-((5-amino-6-oxo-4-(trifluoromethyl)pyrimidin-1(6H)-yl)methyl)-4-(cyclopropylethynyl)-4-(trifluoromethyl)-3,4-dihydroquinazolin-2(1H)-one], the EC50 was found to be 126 nM.

For `O=C1Nc2cc(Cn3cnccc3=O)ccc2[C@@](C#CC2CC2)(C(F)(F)F)N1` [Example 21, (S)-4-(cyclopropylethynyl)-7-((6-oxopyrimidin-1(6H)-yl)methyl)-4-(trifluoromethyl)-3,4-dihydroquinazolin-2(1H)-one], the EC50 turned out to be 181 nM. Still for that read-out and setting: with `N#Cc1cc(=O)n(Cc2ccc3c(c2)NC(=O)N[C@]3(C#CC2CC2)C(F)(F)F)cn1` [Example 27, (S)-1-((4-(cyclopropylethynyl)-2-oxo-4-(trifluoromethyl)-1,2,3,4-tetrahydroquinazolin-7-yl)methyl)-6-oxo-1,6-dihydropyrimidine-4-carbonitrile] the figure was 190 nM; with `O=C1Nc2cc(Cn3cnc(C4CC4)cc3=O)ccc2[C@@](C#CC2CC2)(C(F)(F)F)N1` [Example 22, (S)-7-((4-cyclopropyl-6-oxopyrimidin-1(6H)-yl)methyl)-4-(cyclopropylethynyl)-4-(trifluoromethyl)-3,4-dihydroquinazolin-2(1H)-one], 288 nM; with `O=C1Nc2cc(Cn3cnc(C(F)(F)F)cc3=O)c(Cl)cc2[C@@](C#CC2CC2)(C(F)(F)F)N1` [Example 42, (S)-6-chloro-4-(cyclopropylethynyl)-7-((6-oxo-4-(trifluoromethyl)pyrimidin-1(6H)-yl)methyl)-4-(trifluoromethyl)-3,4-dihydroquinazolin-2(1H)-one], 52 nM. On the same count and under the same terms, the same measure for `Nc1c(Cl)ncn(Cc2cc3c(cc2Cl)[C@@](C#CC2CC2)(C(F)(F)F)NC(=O)N3)c1=O` [Example 11, (S)-7-((5-amino-4-chloro-6-oxopyrimidin-1(6H)-yl)methyl)-6-chloro-4-(cyclopropylethynyl)-4-(trifluoromethyl)-3,4-dihydroquinazolin-2(1H)-one]: 33 nM; for `Cc1cn(Cc2ccc3c(c2)NC(=O)N[C@]3(C#CC2CC2)C(F)(F)F)c(=O)[nH]c1=O` [Example 47, (S)-1-((4-(cyclopropylethynyl)-2-oxo-4-(trifluoromethyl)-1,2,3,4-tetrahydroquinazolin-7-yl)methyl)-5-methylpyrimidine-2,4(1H,3H)-dione]: 135 nM; for `Nc1nc(Cl)cn(Cc2ccc3c(c2)NC(=O)N[C@]3(C#CC2CC2)C(F)(F)F)c1=O` [Example 68, (S)-7-((3-amino-5-chloro-2-oxopyrazin-1(2H)-yl)methyl)-4-(cyclopropylethynyl)-4-(trifluoromethyl)-3,4-dihydroquinazolin-2(1H)-one]: 71 nM. Take `Nc1c(C(F)(F)F)ccn(Cc2ccc3c(c2)NC(=O)N[C@]3(C#CC2CC2)C(F)(F)F)c1=O` [Example 72, (S)-7-((3-amino-2-oxo-4-(trifluoromethyl)pyridin-1(2H)-yl)methyl)-4-(cyclopropylethynyl)-4-(trifluoromethyl)-3,4-dihydroquinazolin-2(1H)-one]: the EC50 worked out at 193 nM. With `COc1ccn(Cc2cc3c(cc2F)[C@@](C#CC2CC2)(C(C)(F)F)NC(=O)N3)c(=O)c1` [Example 84, (S)-4-(cyclopropylethynyl)-4-(1,1-difluoroethyl)-6-fluoro-7-((4-methoxy-2-oxopyridin-1(2H)-yl)methyl)-3,4-dihydroquinazolin-2(1H)-one], the EC50 worked out at 30 nM. Same read-out and setting: with `Nc1cncn(Cc2cc3c(cc2F)[C@@](C#CC2CC2)(C(F)(F)F)NC(=O)N3)c1=O` [Example 5, (S)-7-((5-amino-6-oxopyrimidin-1(6H)-yl)methyl)-4-(cyclopropylethynyl)-6-fluoro-4-(trifluoromethyl)-3,4-dihydroquinazolin-2(1H)-one] the figure was 35 nM; with `Nc1c(Cl)ncn(Cc2cc3c(cc2F)[C@@](C#CC2CC2)(C(F)(F)F)NC(=O)N3)c1=O` [Example 8, (S)-7-((5-amino-4-chloro-6-oxopyrimidin-1(6H)-yl)methyl)-4-(cyclopropylethynyl)-6-fluoro-4-(trifluoromethyl)-3,4-dihydroquinazolin-2(1H)-one], 46 nM. For `Cc1cc(=O)n(Cc2cc3c(cc2Cl)[C@@](C#CC2CC2)(C(C)(F)F)NC(=O)N3)cn1` [Example 18, (S)-6-chloro-4-(cyclopropylethynyl)-4-(1,1-difluoroethyl)-7-((4-methyl-6-oxopyrimidin-1(6H)-yl)methyl)-3,4-dihydroquinazolin-2(1H)-one], the EC50 stood at 15 nM.

For the molecule `Nc1ccnn(Cc2ccc3c(c2)NC(=O)N[C@]3(C#CC2CC2)C(F)(F)F)c1=O` [Example 24, (S)-7-((5-amino-6-oxopyridazin-1(6H)-yl)methyl)-4-(cyclopropylethynyl)-4-(trifluoromethyl)-3,4-dihydroquinazolin-2(1H)-one], the EC50 came out at 210 nM.

The same assay, now with this note: read-out: EC50 (HIV-TACK cell kill activity); 2,2,2-trifluoroacetate.
As for `Nc1cc(=O)n(Cc2ccc3c(c2)NC(=O)N[C@]3(C#CC2CC2)C(F)(F)F)cn1` [Example 32, (S)-1-((4-(cyclopropylethynyl)-2-oxo-4-(trifluoromethyl)-1,2,3,4-tetrahydroquinazolin-7-yl)methyl)-6-oxo-1,6-dihydropyrimidin-4-aminium 2,2,2-trifluoroacetate], the EC50 was 141 nM.
